Results: patent EP4316456A1, “BIOLOGICALLY ACTIVE QUADROCOMPLEX FOR REGULATING THE BIODIVERSITY OF SKIN MICROBIOTA” (SkyLab AG, priority 2021, dated 2022)

Tests used:
Escherichia coli [1] = test: Effect of antibacterial basic samples on growth of hand skin microflora, double dilution method; type: cell-based; design: key: +: confluent growth-of test microorganisms as in the control; +: retarded or depressed growth; -: no growth; settings: 5% solution of sample in purified water with 0.5% Tween 80, 30 minutes; 48 hours at 37 degrees Celsius
Protocol: (§1) A mixture consisting of purified water and 0.5% Tween 80 was used as a base to include the components of the complex. Samples were prepared using a magnetic stirrer by solubilizing the components of the quad complex in Tween 80 and gradually introducing them into purified water at 350 rpm. The stability of the samples was evaluated visually, by the absence of separation of the fatty phase from the aqueous solution. 2 strains of microorganisms of normal microflora, widely represented on the skin of the hands, were selected: Staphylococcus epidermidis and Micrococcus luteus. Microorganisms of transient opportunistic microflora present on the skin of the hands were also selected: Staphylococcus aureus, Escherichia coli and fungi of Candida albicans genus. Microorganisms were obtained by washing from the skin of the hands of subjects or using standard strains, cultivating isolated microorganisms and counting the number of grown colonies of microorganisms. The method of the analysis is based on the double dilution method and consists in preparing a suspension of bacterial cells of selected microorganisms (S. aureus, E. coli, C. albicans, S. epidermidis, M. luteus) separately at a concentration of 1×10^9 cells/ml. Next, 0.2 ml of a suspension of bacterial cells is added to 1.8 ml of a 5% solution of antibacterial components. In 30 minutes, 1 ml of the resulting mixture is added to a test tube with 9 ml of sterile saline 0.9%. In 15 more minutes, a series of dilutions is prepared in sterile saline to a concentration of 10^3 cells/ml. 0.1 ml of a solution of the initial concentration and successive dilutions is added to the surface of cups with a special nutrient medium for the growth of selected microorganisms separately. The cultures are incubated for 48 hours at 37 degrees Celsius and the colonies are counted by the standard method. The parameter for the overall assessment of the effect of the biologically active quad complex on the growth of representatives of the normal microflora was the presence or no growth of microorganisms, determined by the microbiologist based on the results of the study. The indicator of bacterial growth allows evaluating the effect of microflora on microorganisms and drawing a conclusion about the effect of the quad complex on the microflora of hand skin. The general positive trend in the use of the components of the claimed quad complex is the absence of a negative effect on the normal microflora of the skin of the hands and a pronounced antibacterial effect on the transient microflora, which will ensure the maintenance of natural non-pathogenic microflora for dermatological comfort and hygiene of hand skin.

Staphylococcus aureus [2] = test: as above; type: cell-based; design: key: +: confluent growth-of test microorganisms as in the control; +: retarded or depressed growth; -: no growth; settings: 5% solution of sample in purified water with 0.5% Tween 80, 30 minutes; 48 hours at 37 degrees Celsius
Protocol: as §1

[3] = system: Staphylococcus epidermidis; test: as above; type: cell-based; design: key: +: confluent growth-of test microorganisms as in the control; +: retarded or depressed growth; -: no growth; settings: 5% solution of sample in purified water with 0.5% Tween 80, 30 minutes; 48 hours at 37 degrees Celsius
Protocol: as §1

Candida albicans [4] = test: as above; type: cell-based; design: key: +: confluent growth-of test microorganisms as in the control; +: retarded or depressed growth; -: no growth; settings: 5% solution of sample in purified water with 0.5% Tween 80, 30 minutes; 48 hours at 37 degrees Celsius
Protocol: as §1

Micrococcus luteus [5] = test: as above; type: cell-based; design: key: +: confluent growth-of test microorganisms as in the control; +: retarded or depressed growth; -: no growth; settings: 5% solution of sample in purified water with 0.5% Tween 80, 30 minutes; 48 hours at 37 degrees Celsius
Protocol: as §1

Escherichia coli [6] = test: as above; type: cell-based; design: key: ++: no growth; +: depressed growth in most areas; +: retarded growth in some areas; confluent growth-of test microorganisms; settings: 5% solution of sample in purified water with 0.5% Tween 80, 30 minutes; 48 hours at 37 degrees Celsius
Protocol: as §1

Staphylococcus aureus [7] = test: as above; type: cell-based; design: key: ++: no growth; +: depressed growth in most areas; +: retarded growth in some areas; confluent growth-of test microorganisms; settings: 5% solution of sample in purified water with 0.5% Tween 80, 30 minutes; 48 hours at 37 degrees Celsius
Protocol: as §1

[8] = system: Staphylococcus epidermidis; test: as above; type: cell-based; design: key: ++: no growth; +: depressed growth in most areas; +: retarded growth in some areas; confluent growth-of test microorganisms; settings: 5% solution of sample in purified water with 0.5% Tween 80, 30 minutes; 48 hours at 37 degrees Celsius
Protocol: as §1

Candida albicans [9] = test: as above; type: cell-based; design: key: ++: no growth; +: depressed growth in most areas; +: retarded growth in some areas; confluent growth-of test microorganisms; settings: 5% solution of sample in purified water with 0.5% Tween 80, 30 minutes; 48 hours at 37 degrees Celsius
Protocol: as §1

Micrococcus luteus [10] = test: as above; type: cell-based; design: key: ++: no growth; +: depressed growth in most areas; +: retarded growth in some areas; confluent growth-of test microorganisms; settings: 5% solution of sample in purified water with 0.5% Tween 80, 30 minutes; 48 hours at 37 degrees Celsius
Protocol: as §1

[11] = octanol to water; average logP for the essential oil; source not stated; cited from earlier work

Row | Molecule | growth of test-strain (Escherichia coli [1]) | growth of test-strain (Staphylococcus aureus [2]) | growth of test-strain [3] | growth of test-strain (Candida albicans [4]) | growth of test-strain (Micrococcus luteus [5]) | growth of test-strain (Escherichia coli [6]) | growth of test-strain (Staphylococcus aureus [7]) | growth of test-strain [8] | growth of test-strain (Candida albicans [9]) | growth of test-strain (Micrococcus luteus [10]) | logP [11]
1 | Benzalkonium chloride [Benzalkonium chloride 0,1%] | ++ | ++ | ++ | ++ | ++ |  |  |  |  |  | 
2 | CCO [Ethyl alcohol 96%, Ethyl alcohol] | ++ | ++ | ++ | ++ | ++ |  |  |  |  |  | 
3 | CC12CCC(CC1)C(C)(C)O2 [1,8-cineol 0,15%, 1,8-cineol] |  |  |  |  |  | + | - | - | - | - | 2.82
4 | CC(C)=CCC[C@](C)(O)[C@@H]1CC=C(C)CC1 [Alpha-bisabolol 0,10%, alpha-bisabolol] |  |  |  |  |  | + | + | - | - | - | 3.80
5 | OO [Hydrogen peroxide 3%, Hydrogen peroxide] |  |  |  |  |  | + | + | + | + | + | 
